{"source": "patent US20220257775A1", "about": "(GLYCOMIMETICS, INC., priority 2019, published 2022)", "key": {"[1]": {"tested_on": "TNFα-treated nude mice infused with human sickle RBCs", "assay": "Sickle cell vaso-occlusion, intravital microscopy and adhesion in nude mouse model", "type": "in vivo, Nude (nu−/nu−) mice", "experimental": "In vivo treatment: Mice were divided into 3 groups. All mice were first injected I.P. with 500 ng TNFα to induce inflammation, activate the endothelium, and allow adhesion of murine leukocytes. After 2 hours, and once the endothelium is activated and murine leukocytes have already adhered, mice were infused with 200 μl of DIL (rhodamine)-labeled human sickle RBCs at 50% hematocrit (less than 10% murine blood volume assuming that blood volume for a 20 g weight mouse is 1.5 ml). We injected I.V. the three animal groups with the first dose of either Compound 45 at 20 μg/kg or 40 μg/kg, or saline (10 mL/kg) as vehicle immediately after infusion of human RBCs. The second dose was given 30 minutes later.\nWindow chamber surgery: Surgery was performed before TNFα administration. General anesthesia was achieved by exposing nude mice to isoflurane. A double-sided titanium frame window chamber was surgically implanted into the dorsal skin fold under sterile conditions using a laminar flow hood. Surgery involved carefully removing the epidermal and dermal layers of one side of a dorsal skin fold, exposing the blood vessels of the subcutaneous tissue adjacent to the striated muscles of the opposing skin fold, and then securing the two sides of the chamber to the skin using stainless steel screws and sutures. A glass window was placed in the chamber to cover the exposed tissue and secured with a snap ring.\nAnimal treatments, and fluorescence intravital microscopy: Anesthetized nude mice were first injected with 500 ng TNFα. After two hours, mice were infused with 200 μl DIL (rhodamine)-labeled human sickle RBCs at 50% hematocrit DIL through the dorsal tail vein.\nImmediately after human RBC injection, nude mice were then injected I.V. with the first dose of either Compound 45 at 20 μg/kg (n=4) or 40 μg/kg (n=3), or saline (10 mL/kg) as vehicle (n=5). Videos were recorded for 30 minutes at different locations within the dorsal skin-fold window chamber to accurately determine the effects of Compound 45 on human sickle cell adhesion to the vascular endothelium and adherent murine leukocytes, and vaso-occlusion in the nude mice. Thirty minutes later, the second dose of either Compound 45 at 20 μg/kg (n=4) or 40 μg/kg (n=3), or vehicle (n=5) was injected I.V., and intravital microscopy measurements of blood cell flow dynamics in post-capillary venules and arterioles were resumed for another 30 minutes on anesthetized nude mice. Videos were again recorded at different locations within the dorsal skin-fold window chamber to accurately determine the effects of the second dose of Compound 45 on blood cell adhesion to the vascular endothelium, and vaso-occlusion. Videos were produced using 10× and 20× magnifications.\nCell adhesion was quantified on still images by measuring the fluorescence intensity [fluorescence unit (FU)] of adherent fluorescence-labeled human sickle cells using ImageJ software downloaded from the NIH website. Blood flow was also determined by counting the number of vessels with normal blood flow, slow blood flow, and no blood flow by frame-by-frame analysis of video replay. The values were averaged among groups of animals (n=5 for vehicle, n=4 for 40 μg/kg total Compound 45, and n=3 for 80 μg/kg total Compound 45) for non-blinded statistical analysis.\n(§1) Method of Analysis: Human sickle RBC adhesion is presented as FU, blood flow as % normal blood flow, % slow blood flow and % no blood flow (or occluded vessels), and circulating human sickle RBCs as number of circulating sickle RBCs."}, "[2]": {"target": "T1, recombinant human E-selectin/CD63E Fc Chimera (Homo sapiens, UniProt P16581)", "T1 construct": "Fc (human IgG Fc fusion partner); purchased R & D systems", "T1 sequence (P16581 with tags, fused parts or gaps limits assumed)": "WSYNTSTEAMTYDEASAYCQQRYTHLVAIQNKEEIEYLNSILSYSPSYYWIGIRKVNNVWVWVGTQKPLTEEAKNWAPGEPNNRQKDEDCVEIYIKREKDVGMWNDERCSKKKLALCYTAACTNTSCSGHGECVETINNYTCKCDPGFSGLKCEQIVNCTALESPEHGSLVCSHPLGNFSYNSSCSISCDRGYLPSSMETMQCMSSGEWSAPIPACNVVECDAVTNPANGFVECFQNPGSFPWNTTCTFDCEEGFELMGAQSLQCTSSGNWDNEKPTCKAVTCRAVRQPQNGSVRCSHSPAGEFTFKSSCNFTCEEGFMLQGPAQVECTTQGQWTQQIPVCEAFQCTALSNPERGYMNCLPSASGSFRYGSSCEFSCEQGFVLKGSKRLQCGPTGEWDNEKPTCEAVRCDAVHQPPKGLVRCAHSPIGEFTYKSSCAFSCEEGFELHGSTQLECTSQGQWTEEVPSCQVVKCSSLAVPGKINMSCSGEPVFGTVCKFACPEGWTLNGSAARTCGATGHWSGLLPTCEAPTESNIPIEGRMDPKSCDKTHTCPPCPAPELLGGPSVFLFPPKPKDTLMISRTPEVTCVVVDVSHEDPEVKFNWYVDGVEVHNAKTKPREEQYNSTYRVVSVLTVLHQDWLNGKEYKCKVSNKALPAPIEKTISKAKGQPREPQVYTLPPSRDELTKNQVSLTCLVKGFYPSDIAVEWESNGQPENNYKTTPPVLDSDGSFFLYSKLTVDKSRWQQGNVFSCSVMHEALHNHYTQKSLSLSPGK", "assay": "E-Selectin Activity - Analysis by SPR", "type": "binding", "conditions": "Biacore X100, E-selectin captured on anti-human IgG (Fc) chip", "experimental": "Surface Plasmon Resonance (SPR) measurements were performed on a Biacore X100 instrument (GE Healthcare). A CM5 sensor chip (GE Healthcare) was used for the interaction between E-selectin and GMI compound. Anti-human IgG (Fc) antibody (GE Healthcare) was immobilized onto the chip by amine coupling according to the manufacturer's instructions. In brief, after a 7-min injection (flow rate of 5 μl/min) of 1:1 mixture of N-ethyl-N′-(3-dimethylaminopropyl) carbodiimide hydrochloride and N-hydroxysuccinimide, anti-human IgG (Fc) antibody (25 μg/ml in 10 mM sodium acetate buffer, pH 5.0) was injected using a 6-min injection at 5 μl/min. Remaining activated groups were blocked by injecting 1 M ethanolamine/HCl, pH 8.5. The recombinant human E-selectin/CD63E Fc Chimera (50 μg/ml) (R & D systems) was injected into the experimental cell until 6000-7000 RU was captured onto the antibody surface. No recombinant human E-selectin/CD63E was injected into the control cell. Increasing concentrations of GMI compound samples were injected at 30 μl/min into both flow cells and all sensorgrams were recorded against the control. Regeneration of the anti-human IgG (Fc) surface was achieved by injecting 3M magnesium chloride, followed by 50 mM sodium hydroxide. Data were analyzed using Biacore X100 evaluation/BIA evaluation 4.1.1 software (GE Healthcare) and Graphad prism 6 software."}, "[3]": {"tested_on": "TNFα-treated HbSS-Townes mice", "assay": "Sickle cell vaso-occlusion, intravital microscopy and adhesion in Townes mouse model", "type": "in vivo", "experimental": "In vivo treatment: Townes mice were divided into 3 groups. All mice were first injected I.V. with PE-anti-mouse TER-119 antibody (10 μg/g BW) to label RBCs. Thirty minutes later, animals are injected with 500 ng TNFα I.P. to induce vaso-occlusion. After 90 minutes, and after onset of vaso-occlusion, sickle mice were treated I.V. with the first dose of either Compound 45 at 20 μg/kg or 40 μg/kg, or saline (10 mL/kg) as vehicle. The second dose was given 30 minutes later.\nWindow chamber surgery: For Townes mice experiments, surgery is carried out under sterile conditions with aseptic technique. Since these mice do have hair, it is necessary to shave and use hair removal cream on the back of the anesthetized mouse prior to cleaning the back of the animals, and performing surgery. Experimental studies are performed immediately after surgery, because in our experience, window chambers are not usable a few days after surgery. The skin is very dry, and blood cells cannot be visualized under the microscopy. In addition, sickle mice have been reported to have a mild inflammatory response to the dorsal skin-fold window chamber implantation, evidenced by elevated levels of serum amyloid P component (SAP) 3 days after surgery.\nIntravital microscopy: Anesthetized animals with window chambers were placed on the stage of an Axoplan microscope (Carl Zeiss, Thornwood, N.Y.) and temperature maintained at 37° C. using a thermostatically controlled heating pad. […] Microcirculatory events and cell adhesion were simultaneously recorded using a computer connected to a digital video camera C2400 (Hamamatsu Photonics K.K., Japan). Visible venules were examined for each set of conditions. Arterioles were distinguished from venules based on: 1) observation of divergent flow as opposed to convergent flow; 2) birefringent appearance of vessel walls using transillumination, which is characteristic of arteriolar vascular smooth muscle; and 3) relatively straight vessel trajectory without evidence of tortuosity.\nData Analysis and Statistics were conducted as described above for the nude mouse model."}, "[4]": {"tested_on": "TNFα-treated nude mice infused with human sickle RBCs", "assay": "Flow cytometry analysis of circulating human sickle RBCs in nude mice", "type": "in vivo, Nude (nu−/nu−) mice", "experimental": "Flow cytometry analysis of circulating human sickle RBCs: Following intravital microscopy, blood samples were collected from nude mice treated with vehicle (n=3), 40 μg/kg total Compound 45 (n=3), and 80 μg/kg total Compound 45 (n=2), through cardiac puncture into EDTA tubes to determine the number of circulating human sickle RBCs by flow cytometry.\nas §1"}, "[5]": {"conditions": "after second dose of 20 μg/kg I.V."}, "[6]": {"conditions": "after the first dose of 40 μg/kg I.V."}, "[7]": {"conditions": "after two doses of 40 μg/kg I.V."}}, "note": "Entries after “also recorded” stand apart in the source; their conditions may differ.", "data": [{"compound": "CC[C@H]1C[C@@H](C(=O)NCCNC(=O)NCCNC(=O)[C@@H]2C[C@H](CC)[C@@H](O[C@@H]3O[C@@H](C)[C@@H](O)[C@@H](O)[C@@H]3O)[C@H](O[C@@H]3O[C@H](CO)[C@H](O)[C@H](O[C@@H](CC4CCCCC4)C(=O)N4CCC4)[C@H]3NC(C)=O)C2)C[C@@H](O[C@@H]2O[C@H](CO)[C@H](O)[C@H](O[C@@H](CC3CCCCC3)C(=O)N3CCC3)[C@H]2NC(C)=O)[C@@H]1O[C@@H]1O[C@@H](C)[C@@H](O)[C@@H](O)[C@@H]1O", "note": "[Compound 45]", "values": [{"measurement": "percentage of the total occluded vessel segments", "setting": "[1]; [5]", "result": 2, "unit": "%"}, {"measurement": "total venules with slow blood flow", "setting": "[1]; [5]", "result": 16, "unit": "%"}, {"measurement": "human SSRBC adhesion compared to vehicle", "setting": "[1]; after second dose of 20 μg/kg I.V. (40 μg/kg total), 30 min interval", "result": "significantly diminished"}, {"measurement": "percentage of obstructed total vessels", "setting": "[1]; [6]", "result": 2, "unit": "%"}, {"measurement": "vessels with slow blood flow", "setting": "[1]; [6]", "result": 12, "unit": "%"}, {"measurement": "percentage of obstructed total vessels", "setting": "[1]; [7]", "result": 4, "unit": "%"}, {"measurement": "vessels with slow blood flow", "setting": "[1]; [7]", "result": 8, "unit": "%"}, {"measurement": "blood flow in inflamed vessels", "setting": "[1]; dose not given", "result": "improves blood flow"}, {"measurement": "human SSRBC adhesion after the inflammatory trigger of vaso-occlusion", "setting": "[1]; dose not given", "result": "reduces human SSRBC adhesion"}, {"measurement": "human SSRBC adhesion compared to vehicle", "setting": "[1]; one dose of 20 μg/kg I.V.", "result": "failed to reduce SSRBC adhesion"}, {"measurement": "human SSRBC adhesion", "setting": "[1]; one dose of 40 μg/kg I.V.", "result": "marked anti-SSRBC adhesive activity"}, {"measurement": "human SSRBC adhesion", "setting": "[1]; two doses of 40 μg/kg I.V. (80 μg/kg total), 30 min interval", "result": "marked anti-SSRBC adhesive activity; also recorded: effective in reducing cell adhesion in venules and vaso-occlusion and restoring blood flow"}, {"measurement": "Kd", "setting": "[2]", "result": 2.1, "unit": "nM"}, {"measurement": "SSRBC adhesion after the inflammatory trigger of vaso-occlusion", "setting": "[3]; dose not given", "result": "reduces SSRBC adhesion"}, {"measurement": "blood flow in inflamed vessels", "setting": "[3]; dose not given", "result": "improves blood flow"}, {"measurement": "adhesion of the sickle cells", "setting": "[3]; two 20 μg/kg doses I.V.", "result": "significantly diminished"}, {"measurement": "reduction of the percentage of the total occluded vessel segments", "setting": "[3]; two 20 μg/kg doses or two 40 μg/kg doses I.V.", "result": "80-90%"}, {"measurement": "adhesion of the sickle cells", "setting": "[3]; two 40 μg/kg doses I.V. (80 μg/kg total)", "result": "significantly diminished; also recorded: effective in reducing sickle RBCs adhesion in venules and vaso-occlusion and restoring blood flow"}, {"measurement": "number of circulating human SSRBCs compared to vehicle", "setting": "[4]; two doses of 20 μg/kg I.V. at 30 min interval", "result": "increased significantly"}, {"measurement": "number of circulating human SSRBCs compared to vehicle", "setting": "[4]; two doses of 40 μg/kg I.V. at 30 min interval", "result": "increased significantly"}]}]}
